The text below walks through data of publication PMC8466420, “Inflammatory and Cytotoxic Activities of Abietane Terpenoids from Nepeta bracteata Benth” (Molecules, 2021).

Type in all cases: cell-based
The subject of one data set is RAW 264.7 macrophages. The data set is described as follows: RAW 264.7 macrophage viability test (MTT). To be noted: compounds at 50 μM; for viability at 50 µM: Mus musculus, RAW264.7, 24 h, read-out: Cell Survival Rate (%) RAW 264.7 Macrophages. As to the method: The MTT colorimetric method was used to detect the effect of compounds 1–10 on the viability of RAW 264.7 macrophages. The RAW 264. 7 macrophages in the logarithmic growth phase were digested with trypsin to prepare a single-cell suspension, which was seeded in a 96-well plate at a density of 1 × 10^4 cells per well and cultured in a 5% CO2 incubator for 24 h at 37 °C, before discarding the supernatant. The blank control group was cultured with 10% FBS-containing DMEM, and the drug group was treated with aqueous solutions of compounds 1–10, with six replicate wells for each concentration. Incubation was continued in 5% CO2 at 37 °C. After 24 h of incubation, 10 μL of 5 mg/mL MTT was added to each well. The culture solution was removed after culturing for 4 h. Then, 100 μL of DMSO was added to each well, before shaking for 10 min to achieve complete dissolution. The optical density (OD) was measured at 492 nm using a microplate reader to calculate cell viability.

The test system of data set [1] is nitric oxide (NO) production in lipopolysaccharide (LPS)-stimulated RAW 264.7 cells. Briefly: Anti-inflammation assay: inhibition of NO production in LPS-stimulated RAW 264.7 macrophages. To be noted: means ± SD of triplicate experiments. As to the method: The anti-inflammatory activity of the isolated compounds was evaluated in lipopolysaccharide-stimulated RAW 264.7 macrophages using the […]. The RAW 264.7 macrophages were seeded in 96-well plates at a density of 1 × 10^4 cells per well for 24 h, followed by treatment with different extracts of identical purity for another 24 h. The compounds were dissolved in dimethyl sulfoxide (DMSO) and diluted appropriately just before cell treatments. Cells were incubated with the extract at indicated concentrations, with DMSO not exceeding 0.1% in all experiments. The cells were cultured in DMEM with 10% FBS and antibiotics (100 U/mL penicillin and 100 µg/mL streptomycin) at 37 °C with 5% CO2. […].

Another data set concerns HCT-8 cells. Briefly: Cytotoxicity test against HCT-8 cells (MTT). To be noted: 24 h, means ± SD (n = 3), read-out: IC50 (μM) HCT-8 (cytotoxic activity). The procedure: (§1) The cytotoxic activities of compounds 1–10 against HCT-8 cells were tested using the MTT colorimetric method. HCT-8 cells were cultivated on DMEM medium at 37 °C and 5% CO2. After diluting the DMEM medium, cells were seeded into 96-well sterile microplates (6 × 10^4 cells/well) and cultured with a series of various concentrations of tested compounds or adriamycin (positive control) for 24 h at 37 °C. After incubation, all compounds were tested at five concentrations (10−100 μM) for 1 h. Following this, the supernatant was removed, and all components were dissolved in 100% DMSO, at such an amount that there was a final DMSO concentration of 0.1% added to each well. The absorbance was measured using a microplate reader at a wavelength of 570 nm. […] The cell growth assay was repeated three times, and the IC50 values were calculated using Microsoft Excel software.

Data set [2] can be described thus: Cytotoxicity test against HCT-8 cells (MTT). To be noted: human, means ± SD (n = 3), read-out: IC50 (μM) HCT-8 (cytotoxic activity). The procedure:
as §1

The mark [3] stands for this setting: Mus musculus, RAW264.7, 24 h treatment.

As for “1-phenanthrenecarboxylic acid [Compound 8]”, in the data set on RAW 264.7 macrophages (24 h), the “Cell Survival Rate (%) RAW 264.7 Macrophages” value is 99.12 ± 0.28%. In addition, the IC50 (commonly the concentration that gives 50% inhibition) was 37.5 ± 0.92 µM in data set [1] (24 h treatment) and more than 50 µM with HCT-8 cells.

As to `COc1cccc2c1C(=O)c1c(O)c3c(c(O)c1C2=O)C[C@@](O)(C(=O)CO)C[C@@H]3O[C@H]1C[C@H](N)[C@H](O)[C@H](C)O1` [Adriamycin, reference compound], in data set [2], the IC50 at 24 h turned out to be 1.78 ± 0.14 µM.

In data set [1] (setting [3]), `CC(=O)Oc1ccccc1C(=O)O` [Aspirin, reference compound] returned an IC50 of 15.9 ± 0.38 µM.

For the compound `CC(=O)O[C@H]1CCC(C)(C)[C@@H]2CCc3cc(C(C)C)ccc3[C@@]12CO` [Compound 1, nepetabrate A], the viability at 50 µM in the data set on RAW 264.7 macrophages is 97.93 ± 0.26%. The same compound had an IC50 in data set [1] (setting [3]) of 38.2 ± 1.15 µM. Also, the IC50 at 24 h in data set [2] is more than 50 µM.

Turning to `CC(C)c1ccc2c(c1)[C@@H](O)C[C@H]1[C@@](C)(C=O)CCC[C@]21C` [Compound 2, nepetabrate B], the viability at 50 µM in the data set on RAW 264.7 macrophages is 88.26 ± 0.32%. In data set [1] (setting [3]), this compound displayed an IC50 of 19.2 ± 1.25 µM. For the same compound, in data set [2], the IC50 at 24 h turned out to be 36.3 ± 1.1 µM.

On to `CC1=C(CO)[C@@H]2C[C@H](O)c3cc(C(C)C)ccc3[C@@]2(C)CC1` [Compound 3, nepetabrate C], for which the viability at 50 µM in the data set with RAW 264.7 macrophages worked out at 99.84 ± 0.21%. In data set [1] (setting [3]), this compound yielded an IC50 of 22.3 ± 1.26 µM. For the same compound, the IC50 at 24 h in data set [2] was more than 50 µM.

Take `C=C1[C@@H]2C[C@H](O)c3cc(C(C)C)ccc3[C@@]2(C)CC[C@@]1(C)O` [Compound 4, nepetabrate D]: in the data set on RAW 264.7 macrophages, the viability at 50 µM stood at 92.21 ± 0.19%. Also, the IC50 in data set [1] (setting [3]) was found to be 18.8 ± 0.75 µM. Moreover, in data set [2], the IC50 at 24 h is 41.4 ± 0.91 µM.

For the compound `CC1CC(=O)OCCNC1=O` (centres unmarked) [Compound 5, 6-methyl-1,4-oxazocane-5,8-dione], the viability at 50 µM with RAW 264.7 macrophages turned out to be 99.21 ± 0.15%. In addition, the IC50 in data set [1] (setting [3]) turned out to be 18 ± 1.13 µM. For the same compound, the IC50 at 24 h in data set [2] is more than 50 µM.

Take `CC(C)(O)c1ccc2c(c1)CC[C@H]1[C@@](C)(C(=O)O)CCC[C@]21C` [Compound 6, angustanoic acid F]: the viability at 50 µM with RAW 264.7 macrophages stood at 99.89 ± 0.13%. This compound also displayed an IC50 in data set [1] (setting [3]) of 36.2 ± 1.21 µM. Moreover, the IC50 at 24 h in data set [2] was more than 50 µM.

In the case of `CC(C)c1ccc2c(c1)[C@@H](O)C[C@H]1[C@@](C)(C(=O)O)CCC[C@]21C` [Compound 7, 7a-hydroxycallitrisic acid], the viability at 50 µM with RAW 264.7 macrophages was 98.75 ± 0.45%. In data set [1] (setting [3]), this compound returned an IC50 of 37.1 ± 0.81 µM. Besides, the IC50 at 24 h in data set [2] was more than 50 µM.

For the compound `CC(=O)c1ccc2c(c1)CC[C@H]1[C@@](C)(C(=O)O)CCC[C@]21C` [Compound 9, angustanoic acid G], in the data set on RAW 264.7 macrophages, the viability at 50 µM was found to be 98.26 ± 0.18%. Also, the IC50 in data set [1] (setting [3]) was 42.3 ± 0.56 µM. Moreover, the IC50 at 24 h in data set [2] was more than 50 µM.

On to `CC(C)c1ccc2c(c1)CC[C@@H]1[C@](C)(CCC[C@]1(C)C(=O)O)O2` [Compound 10, jiadifenoic acid K], for which the viability at 50 µM with RAW 264.7 macrophages was found to be 98.75 ± 0.2%. The same compound registered an IC50 in data set [1] (setting [3]) of 46.3 ± 1.02 µM. Further, the IC50 at 24 h in data set [2] was more than 50 µM.
